Experimental data as given in patent US12258344B2, “Azaaromatic amide derivatives for the treatment of cancer” (SHENZHEN FORWARD PHARMACEUTICALS CO., LTD., priority 2019, dated 2025).

Experiments:
BaF3 (EGFR/D770insSVD) [1] = molecular target: T1, BaF3 (EGFR/D770insSVD) (Homo sapiens, UniProt P00533, cells depend on it, form not given); experiment: Test 13: EGFR exon 20 inserted D770insSVD cell proliferation test; type: cell-based; conditions: A763insFQEA, V769insASV, D770insSVD (tests 13-15), in words
T1 construct: other: A763insFQEA, V769ins
How it was run: (§1)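 BaF3 cells expressing EGFR D770insSVD, 3,000 cells/well, seeded overnight at 37° C, 5% CO2, then exposed to serially diluted compound for 72 h. Viable cells read by CellTiter-Glo luminescence; values from curve fitting.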

BaF3 (EGFR/D770insSVD) [2] = molecular target: T2, BaF3 (EGFR/D770insSVD) (Homo sapiens, UniProt P00533, DUP768-770, cells depend on it); experiment: as above; type: cell-based; conditions: BaF3 (EGFR/D770insSVD), 72 hours, Cell Titer-Glo; read-out: Test 13 IC50
T2 construct: Test 13 IC50 (nM); other: BaF3 (EGFR/D770insSVD), 72 hours, Cell Titer-Glo
How it was run: as §1

BaF3 (EGFR/A763insFQEA) = BaF3 (EGFR/A763insFQEA) (Homo sapiens, UniProt P00533, INS763FQEA, cells depend on it); experiment: Test 14: EGFR exon 20 inserted A763insFQEA cell proliferation test; type: cell-based; conditions: 72 hours, Cell Titer-Glo, read-out: Test 14 IC50
How it was run: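 BaF3 cells dependent on EGFR A763insFQEA, plated at 3,000 cells/well and cultured overnight at 37 °C, 5% CO2, then exposed to compound serial dilutions in DMSO for 72 h. Viable cells quantified by CellTiter-Glo luminescence; values from curve fitting.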

BaF3 (EGFR/V769insASV) = BaF3 (EGFR/V769insASV) (Homo sapiens, UniProt P00533, DUP767-769, cells depend on it); experiment: Test 15: EGFR exon 20 inserted V769insASV cell proliferation test; type: cell-based; conditions: 72 hours, Cell Titer-Glo, read-out: Test 15 IC50
How it was run: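 BaF3 cells expressing EGFR V769insASV (3000 cells/well) plated overnight, then exposed to DMSO-diluted compound series for 72 h at 37 °C, 5% CO2. Viability by CellTiter-Glo luminescence; values from curve fitting.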

BaF3 (EGFR/N771insH) [3] = molecular target: T3, BaF3 (EGFR/N771insH) (Homo sapiens, UniProt P00533, cells depend on it, form not given); experiment: Test 16: EGFR exon 20 inserted N771insH cell proliferation test; type: cell-based; conditions: N771insH, D770insNPG, V774insHV (tests 16-18), in words
T3 construct: other: N771insH, D770insNPG

BaF3 (EGFR/N771insH) [4] = molecular target: T4, BaF3 (EGFR/N771insH) (Homo sapiens, UniProt P00533, cells depend on it, form not given); experiment: as above; type: cell-based; conditions: BaF3 (EGFR/N771insH), 72 hours, Cell Titer-Glo; read-out: Test 16 IC50
T4 construct: Test 16 IC50 (nM); other: BaF3 (EGFR/N771insH), 72 hours, Cell Titer-Glo

BaF3 (EGFR/D770insNPG) = BaF3 (EGFR/D770insNPG) (Homo sapiens, UniProt P00533, cells depend on it, form not given); experiment: Test 17: EGFR exon 20 inserted D770insNPG cell proliferation test; type: cell-based; conditions: 72 hours, Cell Titer-Glo, read-out: Test 17 IC50
Description: Test 17: EGFR Exon 20 Inserted D770insNPG Cell Proliferation Test
(§2) The number of viable cells in the culture was measured according to the protocol described in Promega's Cell Titer-Glo Luminescent cell Viability Assay (Promega catalog number #G7570). 90 μl of cells (3,000 cells/well) were cultured in growth medium in a Corning black transparent bottom 96-well plate, and cultured in a 5% CO2 humidified incubator at 37° C. overnight. The compound serially diluted in 100% DMSO was added to the cells using a pipette, and the cells were incubated for another 72 hours. 100 μl of the mixed Cell Titer-Glo reagent was added to the cells in the 96-well culture plate to lyse the cells and mix gently. Subsequently, the […] was detected on the Envision microplate detector to obtain the data of each compound. Finally, the data was input into a suitable software package (such as Prism) for curve fitting analysis.

BaF3 (EGFR/V774insHV) = BaF3 (EGFR/V774insHV) (Homo sapiens, UniProt P00533, cells depend on it, form not given); experiment: Test 18: EGFR exon 20 inserted V774insHV cell proliferation test; type: cell-based; conditions: 72 hours, Cell Titer-Glo, read-out: Test 18 IC50
Description: as §2

BaF3 (EGFR/S768I) [5] = molecular target: T5, BaF3 (EGFR/S768I) (Homo sapiens, UniProt P00533, cells depend on it, form not given); experiment: Test 19: EGFR/S768I mutant cell line proliferation test; type: cell-based; conditions: BaF3 (EGFR/S768I), 72 hours, Cell Titer-Glo; read-out: Test 19 IC50
T5 construct: other: BaF3 (EGFR/S768I), 72 hours, Cell Titer-Glo
Description: (§3) Test 19: EGFR/S768I Mutant Cell Line Proliferation Test
as §2

BaF3 (EGFR/S768I) [6] = molecular target: T6, BaF3 (EGFR/S768I) (Homo sapiens, UniProt P00533, cells depend on it, form not given); experiment: as above; type: cell-based; conditions: EGFR S768I and EGFR L861Q (tests 19-20), in words
T6 construct: other: EGFR S768I and EGFR L8
Description: as §3, §2

BaF3 (EGFR/L861Q) = BaF3 (EGFR/L861Q) (Homo sapiens, UniProt P00533, cells depend on it, form not given); experiment: Test 20: EGFR/L861Q mutant cell line proliferation test; type: cell-based; conditions: 72 hours, Cell Titer-Glo, read-out: Test 20 IC50
Description: as §2, with “The compound serially diluted in 100% DMSO was added to the cells using a pipette, and the cells were incubated for another 72 hours.” left out

BaF3 (HER2/A775insYVMA) = molecular target: T7, BaF3 (HER2/A775insYVMA) (Homo sapiens, UniProt P04626, cells depend on it, form not given); experiment: Test 21: HER2 exon 20 inserted A775insYVMA cell proliferation test; type: cell-based; conditions: BaF3 (HER2/A775insYVMA), 72 hours, Cell Titer-Glo; read-out: test 21 IC50
T7 construct: other: BaF3 (HER2/A775insYVMA), 72 hours, Cell Titer-Glo
Description: Test 21: HER2 Exon 20 Inserted A775insYVMA Cell Proliferation Test
as §2

BaF3 (HER2/P780insGSP) = BaF3 (HER2/P780insGSP) (Homo sapiens, UniProt P04626, cells depend on it, form not given); experiment: Test 22: HER2 exon 20 inserted P780insGSP cell proliferation test; type: cell-based; conditions: 72 hours, Cell Titer-Glo, read-out: test 22 IC50
Description: Test 22: HER2 Exon 20 Inserted P780insGSP Cell Proliferation Test
The engineered cell line BaF3 (HER2/P780insGSP) was constructed by the inventor himself (for the method of cell line construction, see Jingrui Jiang et al., Cancer Res. 2005 Oct. 1; 65 (19): 8964-74; Jacqulyne P. Robichaux et al., Nat Med. 2018 May; 24 (5): 638-646). BaF3 (HER2/P780insGSP) was cultured in RPMI 1640 medium containing 10% fetal bovine serum and 2 mM glutamine, and the cells were grown at 37° C. in a humidified incubator with 5% CO2.
as §2

BaF3 (HER2/G776insVC) = BaF3 (HER2/G776insVC) (Homo sapiens, UniProt P04626, cells depend on it, form not given); experiment: Test 23: HER2 exon 20 inserted G776insVC cell proliferation test; type: cell-based; conditions: 72 hours, Cell Titer-Glo, read-out: test 23 IC50
Description: Test 23: HER2 Exon 20 Inserted G776insVC Cell Proliferation Test
as §2

HER4 kinase = molecular target: T8, HER4 kinase (Homo sapiens, UniProt Q15303); experiment: Test 24: HER4 kinase inhibition test; type: biochemical
T8 construct: made in house
Description: Test 24: HER4 Kinase Inhibition Test
Next, 100% DMSO was used to formulate the test compound into a solution of 50× at the final test concentration, and then sequentially diluted to 10 test concentrations; 100 μL of 100% DMSO was added to the blank control well as a negative control group without the compound and kinase. […] Finally, 10 μL of 2.5× peptide solution was added to the 384-well plate. After incubating at 25° C. for 10 minutes, 25 μL of reaction stop solution was added. Finally, the absorbance was detected on the Envision microplate detector to obtain the data of each compound. Finally, the data was input into a suitable software package (such as Prism) for curve fitting analysis.

T8 sequence (Q15303 26-1308): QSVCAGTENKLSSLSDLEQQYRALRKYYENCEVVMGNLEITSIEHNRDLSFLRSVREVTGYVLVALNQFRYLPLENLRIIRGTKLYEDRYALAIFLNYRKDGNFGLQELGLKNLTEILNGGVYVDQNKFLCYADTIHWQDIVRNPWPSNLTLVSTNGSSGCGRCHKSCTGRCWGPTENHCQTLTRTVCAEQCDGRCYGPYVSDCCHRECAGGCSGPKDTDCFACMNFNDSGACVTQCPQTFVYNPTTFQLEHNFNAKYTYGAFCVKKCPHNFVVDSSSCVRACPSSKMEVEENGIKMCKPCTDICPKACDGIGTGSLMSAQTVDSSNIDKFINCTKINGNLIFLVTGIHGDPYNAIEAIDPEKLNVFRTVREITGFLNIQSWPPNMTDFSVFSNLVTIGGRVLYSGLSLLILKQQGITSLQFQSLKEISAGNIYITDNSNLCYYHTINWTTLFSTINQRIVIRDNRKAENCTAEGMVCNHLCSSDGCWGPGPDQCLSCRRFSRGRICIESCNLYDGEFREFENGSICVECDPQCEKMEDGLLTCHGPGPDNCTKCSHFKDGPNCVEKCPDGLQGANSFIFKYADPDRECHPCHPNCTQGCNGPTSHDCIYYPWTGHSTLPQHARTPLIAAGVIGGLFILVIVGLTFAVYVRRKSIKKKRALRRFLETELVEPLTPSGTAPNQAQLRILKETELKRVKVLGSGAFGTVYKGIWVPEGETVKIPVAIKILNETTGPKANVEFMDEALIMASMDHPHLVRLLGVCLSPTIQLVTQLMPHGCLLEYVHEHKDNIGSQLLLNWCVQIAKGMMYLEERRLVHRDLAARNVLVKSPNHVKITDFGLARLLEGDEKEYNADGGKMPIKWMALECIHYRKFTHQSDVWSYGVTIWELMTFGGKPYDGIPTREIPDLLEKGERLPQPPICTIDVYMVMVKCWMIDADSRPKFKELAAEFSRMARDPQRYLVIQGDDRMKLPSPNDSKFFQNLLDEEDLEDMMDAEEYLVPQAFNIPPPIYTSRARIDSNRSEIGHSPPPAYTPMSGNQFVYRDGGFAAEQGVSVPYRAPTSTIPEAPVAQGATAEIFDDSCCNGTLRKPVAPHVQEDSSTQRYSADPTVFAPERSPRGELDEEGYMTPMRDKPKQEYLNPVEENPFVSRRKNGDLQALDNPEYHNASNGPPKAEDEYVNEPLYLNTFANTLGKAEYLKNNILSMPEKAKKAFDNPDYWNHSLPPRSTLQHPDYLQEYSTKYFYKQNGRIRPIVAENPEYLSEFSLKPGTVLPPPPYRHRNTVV
Chain of BaF3 (HER2/P780insGSP) (P04626 with tags, fused parts or gaps DELINS776-776VC): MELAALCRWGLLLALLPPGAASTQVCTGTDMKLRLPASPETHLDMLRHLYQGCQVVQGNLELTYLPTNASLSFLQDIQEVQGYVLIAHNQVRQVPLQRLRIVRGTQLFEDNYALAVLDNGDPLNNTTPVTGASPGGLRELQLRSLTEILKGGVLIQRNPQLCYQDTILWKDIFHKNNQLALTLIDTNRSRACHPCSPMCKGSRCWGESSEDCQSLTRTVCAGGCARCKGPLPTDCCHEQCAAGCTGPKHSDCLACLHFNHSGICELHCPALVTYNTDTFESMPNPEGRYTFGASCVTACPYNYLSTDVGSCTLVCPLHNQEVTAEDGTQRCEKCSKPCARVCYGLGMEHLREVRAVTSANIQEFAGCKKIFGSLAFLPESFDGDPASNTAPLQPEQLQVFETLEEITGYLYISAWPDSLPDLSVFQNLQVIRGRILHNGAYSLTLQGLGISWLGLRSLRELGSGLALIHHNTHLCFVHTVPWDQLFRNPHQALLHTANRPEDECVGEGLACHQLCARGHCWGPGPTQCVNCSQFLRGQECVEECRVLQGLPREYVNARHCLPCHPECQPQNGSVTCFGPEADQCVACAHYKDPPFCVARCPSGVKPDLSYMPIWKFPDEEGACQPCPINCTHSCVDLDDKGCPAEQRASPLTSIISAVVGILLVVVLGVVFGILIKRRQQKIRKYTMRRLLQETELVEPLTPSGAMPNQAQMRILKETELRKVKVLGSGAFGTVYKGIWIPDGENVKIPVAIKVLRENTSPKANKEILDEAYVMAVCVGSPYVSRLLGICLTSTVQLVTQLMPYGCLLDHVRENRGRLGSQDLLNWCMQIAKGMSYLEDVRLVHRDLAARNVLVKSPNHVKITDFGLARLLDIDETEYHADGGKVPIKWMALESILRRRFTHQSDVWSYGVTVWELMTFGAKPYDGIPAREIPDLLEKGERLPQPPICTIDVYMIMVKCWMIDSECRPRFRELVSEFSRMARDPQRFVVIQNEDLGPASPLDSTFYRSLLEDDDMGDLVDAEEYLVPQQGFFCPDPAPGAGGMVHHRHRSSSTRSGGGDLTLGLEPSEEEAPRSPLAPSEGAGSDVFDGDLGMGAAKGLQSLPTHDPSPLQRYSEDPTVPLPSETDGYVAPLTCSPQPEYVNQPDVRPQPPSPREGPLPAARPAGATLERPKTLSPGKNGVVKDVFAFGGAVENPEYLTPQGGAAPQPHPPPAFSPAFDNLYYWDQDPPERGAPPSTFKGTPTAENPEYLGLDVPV
T7 sequence (P04626 with tags, fused parts or gaps DUP778-780): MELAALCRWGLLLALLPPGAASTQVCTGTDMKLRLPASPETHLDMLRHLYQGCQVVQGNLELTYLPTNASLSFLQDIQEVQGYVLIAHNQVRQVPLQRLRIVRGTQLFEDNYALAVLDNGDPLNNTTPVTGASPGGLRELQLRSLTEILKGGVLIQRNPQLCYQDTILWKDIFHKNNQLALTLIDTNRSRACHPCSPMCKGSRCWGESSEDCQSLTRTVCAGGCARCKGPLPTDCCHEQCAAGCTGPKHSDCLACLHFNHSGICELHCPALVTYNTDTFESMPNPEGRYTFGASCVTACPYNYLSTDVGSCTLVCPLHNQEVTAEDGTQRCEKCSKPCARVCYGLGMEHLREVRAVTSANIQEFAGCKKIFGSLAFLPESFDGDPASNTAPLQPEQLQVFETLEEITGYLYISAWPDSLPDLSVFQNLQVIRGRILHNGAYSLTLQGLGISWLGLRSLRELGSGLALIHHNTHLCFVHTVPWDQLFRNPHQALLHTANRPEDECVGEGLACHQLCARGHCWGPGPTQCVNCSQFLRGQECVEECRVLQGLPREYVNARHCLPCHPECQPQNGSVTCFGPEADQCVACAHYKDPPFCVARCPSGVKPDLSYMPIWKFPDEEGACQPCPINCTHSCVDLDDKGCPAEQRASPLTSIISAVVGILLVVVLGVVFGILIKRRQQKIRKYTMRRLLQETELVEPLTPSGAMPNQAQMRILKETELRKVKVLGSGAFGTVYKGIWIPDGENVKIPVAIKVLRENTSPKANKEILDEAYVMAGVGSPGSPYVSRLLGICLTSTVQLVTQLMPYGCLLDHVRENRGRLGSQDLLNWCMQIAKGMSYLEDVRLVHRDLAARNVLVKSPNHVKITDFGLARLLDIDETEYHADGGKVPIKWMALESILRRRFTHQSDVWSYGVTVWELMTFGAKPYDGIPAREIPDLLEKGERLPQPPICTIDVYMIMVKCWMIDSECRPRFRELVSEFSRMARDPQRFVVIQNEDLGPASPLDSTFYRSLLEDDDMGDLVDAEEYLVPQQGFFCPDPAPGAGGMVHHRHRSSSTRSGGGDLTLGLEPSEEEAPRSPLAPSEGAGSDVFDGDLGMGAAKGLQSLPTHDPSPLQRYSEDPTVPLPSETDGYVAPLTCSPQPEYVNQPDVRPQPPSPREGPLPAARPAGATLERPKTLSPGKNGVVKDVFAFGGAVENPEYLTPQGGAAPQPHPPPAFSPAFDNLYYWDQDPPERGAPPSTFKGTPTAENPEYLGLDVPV
Chain of BaF3 (HER2/G776insVC) (P04626 with tags, fused parts or gaps DUP772-775): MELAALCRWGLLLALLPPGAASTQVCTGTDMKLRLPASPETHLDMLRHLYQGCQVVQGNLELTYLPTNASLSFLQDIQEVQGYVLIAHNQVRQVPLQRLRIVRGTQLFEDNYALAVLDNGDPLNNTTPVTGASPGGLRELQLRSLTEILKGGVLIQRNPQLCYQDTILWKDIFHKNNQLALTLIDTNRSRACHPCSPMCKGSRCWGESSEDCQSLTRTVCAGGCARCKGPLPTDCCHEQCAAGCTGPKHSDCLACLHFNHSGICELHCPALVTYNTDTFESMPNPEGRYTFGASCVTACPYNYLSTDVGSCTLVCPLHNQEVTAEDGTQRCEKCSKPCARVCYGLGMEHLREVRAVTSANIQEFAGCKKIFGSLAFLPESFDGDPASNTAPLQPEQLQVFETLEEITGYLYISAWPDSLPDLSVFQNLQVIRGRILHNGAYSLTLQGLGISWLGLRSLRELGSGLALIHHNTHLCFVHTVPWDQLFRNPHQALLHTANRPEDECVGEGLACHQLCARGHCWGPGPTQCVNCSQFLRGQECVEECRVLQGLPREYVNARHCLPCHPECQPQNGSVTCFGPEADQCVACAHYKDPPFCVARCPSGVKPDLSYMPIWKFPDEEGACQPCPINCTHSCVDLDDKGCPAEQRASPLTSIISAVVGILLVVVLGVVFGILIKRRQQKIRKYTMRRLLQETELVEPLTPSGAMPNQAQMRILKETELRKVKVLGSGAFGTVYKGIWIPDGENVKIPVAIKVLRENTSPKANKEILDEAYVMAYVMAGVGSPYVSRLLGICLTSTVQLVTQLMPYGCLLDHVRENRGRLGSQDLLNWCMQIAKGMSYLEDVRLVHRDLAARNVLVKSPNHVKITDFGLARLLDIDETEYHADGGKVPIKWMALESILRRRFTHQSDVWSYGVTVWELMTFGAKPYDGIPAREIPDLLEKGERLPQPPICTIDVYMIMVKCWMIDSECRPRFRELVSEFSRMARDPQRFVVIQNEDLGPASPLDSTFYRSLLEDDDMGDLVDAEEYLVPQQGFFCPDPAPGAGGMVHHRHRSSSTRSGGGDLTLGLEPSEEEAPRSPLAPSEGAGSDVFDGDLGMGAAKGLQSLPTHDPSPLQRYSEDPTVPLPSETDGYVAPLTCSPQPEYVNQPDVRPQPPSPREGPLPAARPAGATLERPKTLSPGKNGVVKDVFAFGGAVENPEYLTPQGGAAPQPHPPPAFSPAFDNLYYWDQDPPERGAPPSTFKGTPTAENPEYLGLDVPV

C=CC(=O)Nc1cc(Nc2ncnc(-c3cn(C)c4ccccc34)n2)c(OC)cc1N(C)CCN(C)C [Compound 16]
cell activity compared with Osimertinib (AZD9291) against EGFR exon 20 insertion mutations (BaF3 (EGFR/D770insSVD) [1]): significant superior cell activity over Osimertinib (AZD9291)
GI50 (BaF3 (EGFR/D770insSVD) [2]): 35.8 nM
GI50 (BaF3 (EGFR/A763insFQEA)): 12.8 nM
GI50 (BaF3 (EGFR/V769insASV)): 24.8 nM
cell activity compared with Osimertinib (AZD9291) against EGFR exon 20 insertion mutations (BaF3 (EGFR/N771insH) [3]): significantly superior cell activity over Osimertinib (AZD9291)
GI50 (BaF3 (EGFR/N771insH) [4]): 8.67 nM
GI50 (BaF3 (EGFR/D770insNPG)): 4.69 nM
GI50 (BaF3 (EGFR/V774insHV)): 7.59 nM
GI50 (BaF3 (EGFR/S768I) [5]): 8.63 nM
activity compared with Osimertinib (AZD9291) against EGFR S768I and EGFR L861Q mutations (BaF3 (EGFR/S768I) [6]): superior activity over Osimertinib (AZD9291)
GI50 (BaF3 (EGFR/L861Q)): 21.6 nM
GI50 (BaF3 (HER2/A775insYVMA)): 7.67 nM
GI50 (BaF3 (HER2/P780insGSP)): 1.64 nM
GI50 (BaF3 (HER2/G776insVC)): 12 nM
IC50 value lower than that of Osimertinib (AZD9291) (HER4 kinase; HER4 kinase): about 1 fold
IC50 (HER4 kinase; HER4 kinase inhibition test, read-out: Test 12 HER4 IC50): 29 nM
